Experimental findings from patent US10844038B2, “1,2-dithiolane compounds useful in neuroprotection, autoimmune and cancer diseases and conditions” (SABILA BIOSCIENCES LLC, priority 2016, dated 2020) are described below.

Assay in all cases: Radioisotope filter binding assay
Holding throughout (format): biochemical

In experiment [1] the target is PI3K α (Homo sapiens (Human), UniProt P42336). Conditions: read-out: IC50 Activity Levels Against Various PI3K and mTor Kinases: PI3K α. The method, then: (§1) 3. Radioisotope Filter Binding Assay:
(§2) In this assay format, it directly detects the true product without the use of modified substrates or coupling enzymes (Uitdehaag, J. C., et al. Br. J. Pharmacol. 2012, 166, 858-876; Hastie, C. J., et al. Nat. Protoc. 2006, 1, 968-971) according to equation 1. Substrate+[γ−^33P]−ATP→^33P-Substrate+ADP eq 1
(§3) The protocol calls for test compound of the invention to be incubated with kinase, substrate, cofactors, and radio-isotope-labeled ATP (^33P-gamma-ATP). The reaction mixtures are then spotted onto filter papers which bind the radioisotope labeled catalytic product. Unreacted phosphate is removed via washing. The reagents used include base reaction buffer; 20 mM Hepes (pH 7.5), 10 mM MgCl2, 1 mM EGTA, 0.02% Brij35, 0.02 mg/ml BSA, 0.1 mM Na3VO4, 2 mM DTT, 1% DMSO. The reaction procedure include the following steps: (1) prepare indicated substrate in freshly prepared base reaction buffer, (2) deliver any required cofactors to the substrate solution above, (3) deliver indicated kinase into the substrate solution and gently mix, (4) deliver compounds in DMSO into the kinase reaction mixture by Acoustic technology (Echo550; nanoliter range), incubate for 20 minutes at room temperature, (5) deliver ^33P-ATP (specific activity 10 μCi/μL) into the reaction mixture to initiate the reaction, (6) incubate kinase reaction for 2 hours at room temperature, (7) reactions are spotted onto P81 ion exchange paper, (8) detect kinase activity by filter-binding method.

In experiment [2] the target is PI3K β (Homo sapiens (Human), UniProt P42338). The settings on record: read-out: IC50 Activity Levels Against Various PI3K and mTor Kinases: PI3K β. The method, then:
as §1, §2, §3

Experiment [3] deals with PI3K γ (Homo sapiens (Human), UniProt P48736). The settings on record: read-out: IC50 Activity Levels Against Various PI3K and mTor Kinases: PI3K γ. The method, then:
as §1, §2, §3

The target of experiment [4] is mTor/FRAP1 (Homo sapiens (Human), UniProt P42345). The settings on record: read-out: IC50 Activity Levels Against Various PI3K and mTor Kinases: mTor/FRAP1. As for the experimental part:
as §1, §2, §3

PI3K α, sequence (P42336 whole entry): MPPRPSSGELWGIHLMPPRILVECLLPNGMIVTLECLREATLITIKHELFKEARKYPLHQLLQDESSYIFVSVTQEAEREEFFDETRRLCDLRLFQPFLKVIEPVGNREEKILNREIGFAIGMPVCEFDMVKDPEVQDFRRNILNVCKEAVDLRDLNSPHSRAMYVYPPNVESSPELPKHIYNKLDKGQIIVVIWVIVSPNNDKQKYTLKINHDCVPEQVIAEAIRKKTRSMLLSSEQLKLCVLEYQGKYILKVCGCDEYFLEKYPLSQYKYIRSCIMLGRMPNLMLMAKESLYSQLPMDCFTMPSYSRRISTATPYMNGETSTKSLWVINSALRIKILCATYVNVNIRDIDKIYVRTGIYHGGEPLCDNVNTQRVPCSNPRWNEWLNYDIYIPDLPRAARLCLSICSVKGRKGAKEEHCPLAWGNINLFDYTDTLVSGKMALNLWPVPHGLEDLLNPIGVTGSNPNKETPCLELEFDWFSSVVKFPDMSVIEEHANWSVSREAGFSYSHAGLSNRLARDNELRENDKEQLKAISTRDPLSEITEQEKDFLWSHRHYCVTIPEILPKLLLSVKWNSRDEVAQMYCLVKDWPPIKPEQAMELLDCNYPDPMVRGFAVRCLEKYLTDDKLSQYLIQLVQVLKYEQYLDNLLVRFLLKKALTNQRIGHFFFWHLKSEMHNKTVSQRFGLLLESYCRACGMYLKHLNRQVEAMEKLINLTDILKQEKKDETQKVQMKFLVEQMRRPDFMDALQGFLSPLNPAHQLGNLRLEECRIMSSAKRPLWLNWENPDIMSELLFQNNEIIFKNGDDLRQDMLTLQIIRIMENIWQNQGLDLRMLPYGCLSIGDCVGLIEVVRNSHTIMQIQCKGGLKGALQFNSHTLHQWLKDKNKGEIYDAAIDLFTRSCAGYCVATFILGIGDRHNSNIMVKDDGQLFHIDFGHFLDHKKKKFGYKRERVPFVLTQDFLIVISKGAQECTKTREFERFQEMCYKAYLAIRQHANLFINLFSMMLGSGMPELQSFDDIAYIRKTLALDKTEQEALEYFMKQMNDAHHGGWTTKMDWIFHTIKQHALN
PI3K α, sequence (P27986 whole entry partner): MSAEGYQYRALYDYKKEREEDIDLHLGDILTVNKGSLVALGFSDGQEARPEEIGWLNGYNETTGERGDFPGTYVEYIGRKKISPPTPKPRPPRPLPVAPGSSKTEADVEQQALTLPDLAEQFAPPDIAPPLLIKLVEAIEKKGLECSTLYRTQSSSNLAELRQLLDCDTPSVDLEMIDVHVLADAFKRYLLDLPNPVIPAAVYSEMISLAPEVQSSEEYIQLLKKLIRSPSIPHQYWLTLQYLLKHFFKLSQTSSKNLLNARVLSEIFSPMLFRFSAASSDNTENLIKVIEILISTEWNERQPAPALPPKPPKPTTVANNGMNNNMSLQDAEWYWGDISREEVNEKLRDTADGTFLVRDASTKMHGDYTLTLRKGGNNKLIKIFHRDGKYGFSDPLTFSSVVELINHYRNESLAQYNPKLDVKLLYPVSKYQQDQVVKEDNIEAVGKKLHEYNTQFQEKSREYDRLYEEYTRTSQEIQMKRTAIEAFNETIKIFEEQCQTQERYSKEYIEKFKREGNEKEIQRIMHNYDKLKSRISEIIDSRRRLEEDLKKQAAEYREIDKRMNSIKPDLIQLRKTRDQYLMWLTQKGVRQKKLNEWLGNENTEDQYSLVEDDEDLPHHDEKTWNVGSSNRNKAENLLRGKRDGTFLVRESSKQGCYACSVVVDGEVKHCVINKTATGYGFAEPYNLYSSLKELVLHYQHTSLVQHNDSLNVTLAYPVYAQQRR
PI3K β, sequence (P42338 whole entry): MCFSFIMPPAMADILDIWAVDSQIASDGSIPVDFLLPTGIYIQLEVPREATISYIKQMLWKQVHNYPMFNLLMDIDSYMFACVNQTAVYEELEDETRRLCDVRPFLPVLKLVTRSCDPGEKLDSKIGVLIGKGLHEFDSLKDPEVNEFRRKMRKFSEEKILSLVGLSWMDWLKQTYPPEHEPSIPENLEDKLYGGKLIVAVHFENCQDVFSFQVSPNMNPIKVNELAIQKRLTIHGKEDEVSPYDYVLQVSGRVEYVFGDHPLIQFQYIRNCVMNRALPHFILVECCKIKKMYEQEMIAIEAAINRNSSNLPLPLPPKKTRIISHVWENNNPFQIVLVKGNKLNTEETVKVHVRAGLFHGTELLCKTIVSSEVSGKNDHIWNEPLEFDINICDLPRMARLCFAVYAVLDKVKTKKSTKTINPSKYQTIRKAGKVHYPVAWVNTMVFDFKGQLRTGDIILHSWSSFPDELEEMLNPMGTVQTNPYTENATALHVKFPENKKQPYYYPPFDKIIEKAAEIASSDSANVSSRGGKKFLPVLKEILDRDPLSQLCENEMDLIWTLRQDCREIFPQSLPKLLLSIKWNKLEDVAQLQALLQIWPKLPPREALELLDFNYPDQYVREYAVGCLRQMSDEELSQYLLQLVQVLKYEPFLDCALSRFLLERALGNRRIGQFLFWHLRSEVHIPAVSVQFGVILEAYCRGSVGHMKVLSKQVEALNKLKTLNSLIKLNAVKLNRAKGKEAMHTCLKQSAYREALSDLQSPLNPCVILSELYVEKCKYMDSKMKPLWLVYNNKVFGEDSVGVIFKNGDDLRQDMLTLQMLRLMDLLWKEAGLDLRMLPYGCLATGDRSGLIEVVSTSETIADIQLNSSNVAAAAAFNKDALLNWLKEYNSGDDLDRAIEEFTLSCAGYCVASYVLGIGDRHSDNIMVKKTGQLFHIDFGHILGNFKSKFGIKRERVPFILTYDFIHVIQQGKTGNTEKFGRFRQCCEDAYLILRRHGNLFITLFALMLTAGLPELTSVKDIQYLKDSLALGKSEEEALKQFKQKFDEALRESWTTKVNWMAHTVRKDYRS
PI3K β, sequence (P27986 whole entry partner): as the sequence (P27986 whole entry partner) above
PI3K γ, sequence (P48736 whole entry): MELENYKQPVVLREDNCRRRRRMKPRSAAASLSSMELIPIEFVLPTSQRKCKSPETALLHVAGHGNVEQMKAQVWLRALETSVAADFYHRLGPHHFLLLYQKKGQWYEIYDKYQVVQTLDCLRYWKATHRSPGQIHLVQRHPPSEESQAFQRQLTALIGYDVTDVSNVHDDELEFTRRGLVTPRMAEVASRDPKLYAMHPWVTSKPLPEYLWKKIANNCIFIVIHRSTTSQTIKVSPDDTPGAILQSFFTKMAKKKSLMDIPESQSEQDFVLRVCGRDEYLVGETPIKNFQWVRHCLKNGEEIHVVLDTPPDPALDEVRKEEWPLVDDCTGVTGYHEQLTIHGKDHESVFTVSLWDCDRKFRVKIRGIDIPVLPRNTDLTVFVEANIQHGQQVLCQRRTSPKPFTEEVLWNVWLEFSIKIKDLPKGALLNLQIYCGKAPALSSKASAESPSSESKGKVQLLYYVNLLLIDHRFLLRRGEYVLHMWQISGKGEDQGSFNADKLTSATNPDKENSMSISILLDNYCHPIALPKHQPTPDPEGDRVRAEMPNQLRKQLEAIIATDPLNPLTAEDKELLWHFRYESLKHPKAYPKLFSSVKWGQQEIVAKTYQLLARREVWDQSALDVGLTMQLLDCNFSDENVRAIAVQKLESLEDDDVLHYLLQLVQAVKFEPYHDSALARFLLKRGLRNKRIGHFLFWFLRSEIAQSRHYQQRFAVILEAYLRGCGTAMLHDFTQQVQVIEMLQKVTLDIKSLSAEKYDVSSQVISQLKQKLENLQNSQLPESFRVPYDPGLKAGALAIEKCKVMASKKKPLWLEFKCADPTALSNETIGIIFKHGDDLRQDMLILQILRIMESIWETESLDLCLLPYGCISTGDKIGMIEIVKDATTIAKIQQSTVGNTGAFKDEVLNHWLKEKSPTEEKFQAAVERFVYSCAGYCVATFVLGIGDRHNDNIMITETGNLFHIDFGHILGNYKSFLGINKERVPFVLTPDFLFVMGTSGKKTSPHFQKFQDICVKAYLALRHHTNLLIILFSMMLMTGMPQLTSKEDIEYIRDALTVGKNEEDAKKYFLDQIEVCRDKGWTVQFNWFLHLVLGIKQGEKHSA

On to `Nc1nc2cc(-c3nn(C[C@@H]4SSC[C@H]4OC(=O)c4ccccc4)c4ncnc(N)c34)ccc2o1` (relative stereo) [Example 55, trans 3-((4-Amino-3-(2-aminobenzo[d]oxazol-5-yl)-1H-pyrazolo[3,4-d]pyrimidin-1-yl)methyl)-1,2-dithiolan-4-yl benzoate], for which the IC50 was 100 to 999 nM in experiment [1], 1000 to 10000 nM in experiment [2], 1000 to 10000 nM in experiment [3] and 5 to 99 nM in experiment [4].
